The text below walks through data of US20220047596A1, “COMBINATION OF PARP INHIBITOR AND BRD4 INHIBITOR FOR THE TREATMENT OF CANCER” (Board of Regents, The University of Texas System, priority 2018, published 2022).

In one data set the test system is cancer cell lines. Kind of data set: Viability measurement (PrestoBlue, 96 hr) with CalcuSyn combination index. Type of data set: cell-based, Human. More on the design: synergy with JQ1 at fixed PARPi concentration: dose or concentration left out as unconfirmed. The note with it: for synergy with JQ1 at fixed PARPi concentration: 96 hr, HOC1 cells; for synergistic effects in combinations with BRD4i (JQ1): similar combination indices indicative of synergy. The protocol:
(§1) Viability Measurements: Five thousand cells were seeded into sterile 96-well plates and treated with indicated drug combinations for 96 hr. DMSO was used as a vehicle. PrestoBlue® Cell Viability Reagent (Thermo Fisher Scientific) was used to assess cell viability. Background values from empty wells were subtracted and data normalized to vehicle-treated control. Synergistic effects between both compounds were calculated using the Chou-Talalay equation in CalcuSyn software, which takes into account both potency (IC50) and shape of the dose-effect curve. […], and CI>1 indicates antagonism.

The next data set has as its system PARP. The note with it: cited from earlier work.
The next data set concerns U2OS DR-GFP cells. Briefly: U2OS DR-GFP HR reporter assay. Format: cell-based, Human. The note with it: 100 nM for 24 hr, then I-Sce1 for 48 hr. The text has this:
HR Repair Analysis: U2OS DR-GFP cells contain a single copy of the HR repair reporter substrate DR-GFP, which contains two nonfunctional GFP open reading frames, including one GFP-coding sequence that is interrupted by a recognition site for the I-SceI endonuclease. Expression of I-SceI leads to formation of a DSB in the I-SceI GFP allele, which can be repaired by HR using the nearby GFP sequence lacking the N- and C-termini, thereby producing functional GFP that can be detected by flow cytometry. […] Then, cells were transfected with a plasmid expressing I-SceI (pCBASce) for 48 hr. Cells transfected with an empty vector were used as a negative control. GFP-expressing plasmid (pEGFP-C1) was used for transfection efficiency control. Flow cytometry analysis was performed to detect GFP^+ cells using FACScalibur with CellQuest software (Becton Dickinson). The repair efficiency was scored as the percentage of GFP^+ cells.

Data set [1] concerns HOC1 cells. Briefly: RPA and RAD51 foci immunofluorescence. Format: cell-based, Human. Particulars: after PARPi or IR, compared with vehicle. How it is done:
Immunofluorescence Staining and Microscopy: Briefly, cells were washed with PBS and fixed with 4% paraformaldehyde for 5 min, followed by permeabilization with 0.5% NP-40 and 1% Triton X-100 for 10 min Cells were then blocked with 5% FBS for 30 min and incubated with primary antibody (anti-RAD51, PC130, 1:100; anti-g-H2AX (Ser139), clone JBW301, 1:1000 from Millipore Corp; anti-RPA32, ab2175, 1:500 from Abcam) for 2 hr, followed by secondary antibody incubation for 1 hr at room temperature. Slides were sealed in mounting medium containing DAPI (Vector Laboratories, H1200) for further image acquisition. TE-2000 imaging acquisition system (Nikon) equipped with a 60× objective lens was used to capture images. Stained was quantified by ImageJ.

For another data set, the system named is HRD gene signature. Kind of data set: HRD gene signature score applied to public transcriptional profiling data. Particulars: human or murine tumors; GEO datasets.
The next data set has as its system OVCAR3 xenografts. Kind of data set: OVCAR3 xenograft. Format: in vivo, mice. Particulars: Olaparib 100 mg/kg, AZD5153 2.5 mg/kg, oral gavage, daily, 35 days. How it is done: 6 weeks old female C.B-17 scid mice were purchased from Charles River Laboratories and used for OVCAR3 xenografts. Tumor cells were injected into female mice of approximately 8-10 weeks of age. All mice were housed under pathogen-free conditions at AstraZeneca AAALAC accredited facility. All animal experiments were conducted in compliance with the National Institute of Health guidelines for animal research and approved by the Institutional Animal Care and Use Committee of AstraZeneca.
OVCAR3 Xenograft: […] OVCAR3 cells were injected subcutaneously in the right flank of mice. Mice were randomized based on tumor volumes using stratified sampling and enrolled into control and treatment groups. Dosing began when mean tumor size reached approximately 200 mm^3 and continued for 35 days.

Data set [2] in a line: Toxicity analysis in the T127 model (blood counts, serum chemistry). Format: in vivo, mice. Particulars: compared with the vehicle group. The text has this: Mice were sacrificed when tumor diameter reached maximum limits of 2.5 cmat Day 22 for tissue harvest and blood collection 3 hr after the final treatment.
The test system of data set [3] is HOC1 cells. Kind of data set: Alkaline comet assay. Type of data set: cell-based, Human. Particulars: 200 nM each, 48 hr. How it is done: Alkaline Single-Cell Agarose Gel Electrophoresis (Comet) Assays: Alkaline comet assays were performed with Comet Assay Kit (Trevigen) using manufacturer's instructions. Briefly, cell suspensions were embedded in LM (low melting) Agarose and deposited on comet slides. Slides were incubated for 1 hr at 4° C. in lysis solution, followed by immersing slides in freshly prepared alkaline unwinding solution (pH >13) for 20 min at room temperature in the dark. Electrophoresis was carried out for 30 min at 21 V in electrophoresis solution (pH >13). Slides were then stained with SYBR™ Gold (Thermo Fisher Scientific). Tail DNA content was analyzed with Comet score 1.5 software. DNA strand breakage was expressed as “comet tail moment”. The tail moment was measured for a minimum of 50 cells per sample, and average damage from 3 independent experiments was calculated.

Another data set deals with DT40 cells. Briefly: Viability dose response in DT40 WT and PARP1-/- cells. Type of data set: cell-based, Chicken. The protocol: as §1

Excerpt for HRD gene signature: Microarray Analysis and IPA Analysis: Gene expression datasets of GSE29799 (Zuber et al., 2011), GSE66048 (Ambrosini et al., 2015), GSE44929 (Love′ n et al., 2013), GSE85840 (Rhyasen et al., 2016), GSE31365 (Delmore et al., 2011), and GSE43392 (Puissant et al., 2013) were downloaded from Gene Expression Omnibus (GEO) (https://www.ncbi.nlm.nih.gov/geo). Raw data were subjected to intensity normalization using affy package in R (Bioconductor), followed by log transformation and quantile normalization. Normalized data were checked for quality and determined to be free of outliers by analysis using box plots, density plots and MA plots. Differential expression genes after BRD4 inhibition were calculated using a linear model provided by the limma package in R based on the cutoffs: 2 for absolute fold change, 0.05 for p value.
HRD Score Acquisition from HRD Signature HRD signature consisting of 230 differentially expressed genes was obtained as previously described (Peng et al., 2014). Normalized gene expression data (GSE29799, GSE66048, GSE44929, GSE85840, GSE31365, and GSE43392) after BRD4 inhibition were subjected to unsupervised clustering with these 230 genes. HRD scores were determined by calculating the Pearson's correlations between median centered gene expression levels for HRD signature and gene expression levels for a given sample (Peng et al., 2014).

Consider `C[C@]1(c2nc3c(C(N)=O)cccc3[nH]2)CCCN1` [ABT888], for which, in the data set on cancer cell lines, the “synergy with JQ1 at fixed PARPi concentration” value (from here on “synergy with JQ1”) was “synergized with JQ1” and the “synergistic effects in combinations with BRD4i (JQ1)” value is reported as “synergistic effects were maintained”. In addition, in the data set on PARP, the PARP trapping activity entry is “weakest” and the “concentration required for PARP trapping” value was 50 mM.
Consider `COc1nnc2ccc(N3CCC(c4ccc(OCCN5CCN(C)C(=O)[C@H]5C)cc4)CC3)nn12` [AZD5153], for which the “HR repair (percentage of GFP+ cells)” value in the data set with U2OS DR-GFP cells was “attenuated HR repair”. The RAD51 nuclear foci result in the data set on HOC1 cells [1] is on record as “decreased RAD51 nuclear foci”. Moreover, in the data set on HRD gene signature, the HRD score result is listed as “increased HRD score”. Besides, the “tumor growth inhibitions (TGI)” value with OVCAR3 xenografts is 83%. Moreover, in data set [2], the “numbers of white blood cells” value is listed as “slight decrease but remained in the normal range”.
Regarding `Cn1ncnc1[C@H]1c2n[nH]c(=O)c3cc(F)cc(c23)N[C@@H]1c1ccc(F)cc1` [BMN673], the “DNA damage (comet assay)” value in the data set on HOC1 cells [3] is listed as “modestly induced DNA damage”. For the same compound, the “synergy with JQ1” value with cancer cell lines is reported as “synergized with JQ1”. In the data set with cancer cell lines (OAW42, A2780CP, A2780, UWB1.289, OC316, ARK1, HCC1187, BT20, MDA-MB-436), the “sensitivity of cell lines to PARPi alone” value is reported as “highly sensitive”. In addition, the PARP trapping activity entry with PARP is recorded as “most active”. In the data set on DT40 cells, the “sensitivity of PARP1-/- DT40” value is “resistant”.
Consider `NC(=O)c1cccc2cn(-c3ccc([C@@H]4CCCNC4)cc3)nc12` [Niraparib], for which, in the data set with PARP, the PARP trapping activity entry is “intermediate in activity”.
`O=C(c1cc(Cc2n[nH]c(=O)c3ccccc23)ccc1F)N1CCN(C(=O)C2CC2)CC1` [Olaparib]: in the data set with cancer cell lines, the “synergy with JQ1” value was “synergized with JQ1” and the “synergistic effects in combinations with BRD4i (JQ1)” value is recorded as “synergistic effects were maintained”. Moreover, the “tumor growth inhibitions (TGI)” value in the data set with OVCAR3 xenografts came out at 35%.
On to `CNCc1ccc(-c2[nH]c3cc(F)cc4c3c2CCNC4=O)cc1` [Rucaparib], for which the PARP trapping activity entry in the data set on PARP was “intermediate in activity”.
